# Test results taken from US11684607B2, “Secnidazole for use in the treatment of bacterial vaginosis” (priority 2014, dated 2023).
# Experiment: Single oral dose pharmacokinetics (plasma and urine) of SYM-1219 microgranule formulation in fasted healthy female subjects
# Conditions: for AUC(0-t): AUC0-t; for CL renal: CLr
# [1] = female, human, plasma, po, 1 g, Geometric Mean, 1 gram single oral dose, fasted, N = 14
# [2] = female, human, plasma, po, 1 g, Mean, 1 gram single oral dose, fasted, N = 14
# [3] = female, human, plasma, po, 1 g, Median, 1 gram single oral dose, fasted, N = 14
# [4] = plasma, 1 gram single oral dose, fasted, N = 14
# [5] = plasma, 2 grams single oral dose, fasted, N = 14
# [6] = urine, 1 gram single oral dose, fasted, N = 14
# [7] = urine, 2 grams single oral dose, fasted, N = 14
# Procedure: A non-compartmental analysis was performed and the PK parameters for each treatment group are reported.
compound,measurement,setting,value
"Cc1ncc([N+](=O)[O-])n1CC(C)O (centres unmarked) [SYM-1219, 1-(2-hydroxypropyl)-2-methyl-5-nitromidazole]",intersubject variability for Cmax and AUC,1 g and 2 g doses,< 20 % CV
same,renal clearance as percentage of the glomerular filtration rate typically found in healthy subjects,1 g and 2 g doses,< 5%
same,"Urinary excretion of unchanged SYM-1219, share of the administered dose",1 g dose,13.6%
same,"Urinary excretion of unchanged SYM-1219, share of the administered dose",2 g dose,15.3%
same,time by which maximum concentrations were achieved,both dose groups (1 g and 2 g),approximately 4 hrs.
same,dose proportionality of pharmacokinetics,comparing the 1 and 2 g doses,dose proportional
same,AUC(0-inf),"female, human, plasma, oral, 1 g, Exposure estimate (AUCinf)",619 µg·h/mL
same,AUC(0-inf),"female, human, plasma, oral, 2 g, Exposure estimate (AUCinf)",1330 µg·h/mL
same,Tmax,"female, human, plasma, po, 1 g",3.06 h
same,AUC(0-t),[1],603 µg·h/mL
same,AUC(0-t),[2],610 µg·h/mL
same,AUC(0-t),[3],587 µg·h/mL
same,Cmax,[1],22400 ng/mL
same,Cmax,[2],22600 ng/mL
same,Cmax,[3],22800 ng/mL
same,AUC(0-inf),"female, human, plasma, po, 1 gram, AUC0-∞, Geometric Mean, 1 gram single oral dose, fasted, N = 14",612 µg·h/mL
same,AUC(0-inf),"female, human, plasma, po, 1 gram, AUC0-∞, Mean, 1 gram single oral dose, fasted, N = 14",619 µg·h/mL
same,AUC(0-inf),"female, human, plasma, po, 1 gram, AUC0-∞, Median, 1 gram single oral dose, fasted, N = 14",595 µg·h/mL
same,CL renal,"female, human, urine, po, 1 gram, Geometric Mean, 1 gram single oral dose, fasted, N = 14",3.65 mL/min
same,CL renal,"female, human, urine, po, 1 gram, Mean, 1 gram single oral dose, fasted, N = 14",3.74 mL/min
same,Mean maximum concentration,"plasma, 1 g dose",22.6 µg/mL
same,"t1/2, Mean",[4],17.05 h
same,"t1/2, Median",[4],16.79 h
same,"λz, Mean",[4],0.04099 h⁻¹
same,"λz, Median",[4],0.04129 h⁻¹
same,Mean maximum concentration,"plasma, 2 g dose",45.4 µg/mL
same,"AUC0-t, Geometric Mean",[5],1305.35 µg·h/mL
same,"AUC0-t, Mean",[5],1322.40 µg·h/mL
same,"AUC0-t, Median",[5],1290.41 µg·h/mL
same,"AUC0-∞, Geometric Mean",[5],1314.74 µg·h/mL
same,"AUC0-∞, Mean",[5],1331.63 µg·h/mL
same,"AUC0-∞, Median",[5],1299.10 µg·h/mL
same,"Cmax, Geometric Mean",[5],44.84 µg/mL
same,"Cmax, Mean",[5],45.43 µg/mL
same,"Cmax, Median",[5],45.05 µg/mL
same,"Tmax, Median",[5],4.000 h
same,"t1/2, Mean",[5],16.86 h
same,"t1/2, Median",[5],17.13 h
same,"λz, Mean",[5],0.0422 h⁻¹
same,"λz, Median",[5],0.04047 h⁻¹
same,"% FE, Geometric Mean",[6],13.403%
same,"% FE, Mean",[6],13.602%
same,"% FE, Median",[6],13.981%
same,"Ae0-168, Geometric Mean",[6],0.134 g
same,"Ae0-168, Mean",[6],0.136 g
same,"Ae0-168, Median",[6],0.140 g
same,"CLr, Median",[6],3.965 mL/min
same,"% FE, Geometric Mean",[7],14.991%
same,"% FE, Mean",[7],15.300%
same,"% FE, Median",[7],14.943%
same,"Ae0-168, Geometric Mean",[7],0.300 g
same,"Ae0-168, Mean",[7],0.306 g
same,"Ae0-168, Median",[7],0.299 g
same,"CLr, Geometric Mean",[7],3.801 mL/min
same,"CLr, Mean",[7],3.935 mL/min
same,"CLr, Median",[7],3.962 mL/min
